± gives the uncertainty stated by the source.
Test: xn = mol fraction of the nth substance listed

CCCC[n+]1ccn(C)c1.O=[N+]([O-])[O-] + CCCCO
101 kPa
Conditions	viscosity [mPa·s]
283.15 K, x2 = 0.456	47.92 ± 0.82
288.15 K, x2 = 0.26	94.8 ± 3
288.15 K, x2 = 0.565	23.86 ± 0.35
293.15 K, x2 = 0.565	19.88 ± 0.29
293.15 K, x2 = 0.848	5.88 ± 0.08
298.15 K, x2 = 0.129	97 ± 3.1
298.15 K, x2 = 0.456	25.72 ± 0.38
298.15 K, x2 = 0.565	16.79 ± 0.24
303.15 K, x2 = 0.26	43.31 ± 0.69
303.15 K, x2 = 0.565	14.34 ± 0.2
308.15 K, x2 = 0.129	56.32 ± 0.79
308.15 K, x2 = 0.26	35.31 ± 0.55
308.15 K, x2 = 0.65	8.91 ± 0.12
308.15 K, x2 = 0.753	5.59 ± 0.07
313.15 K, x2 = 0.361	21.55 ± 0.31
313.15 K, x2 = 0.565	10.76 ± 0.15
313.15 K, x2 = 0.65	7.8 ± 0.1
313.15 K, x2 = 0.753	4.91 ± 0.06
318.15 K, x2 = 0.26	24.53 ± 0.37
318.15 K, x2 = 0.565	9.44 ± 0.13
323.15 K, x2 = 0.361	15.85 ± 0.23
323.15 K, x2 = 0.753	3.92 ± 0.05
333.15 K, x2 = 0.361	12.03 ± 0.17
333.15 K, x2 = 0.565	6.56 ± 0.09

O=C(O)CCl + CCC[N+](CCC)(CCC)CCC.[Br-]
100 kPa, x2 = 0.333
Conditions	electrical conductivity [S/m]	viscosity [mPa·s]
308.15 K	0.136 ± 0.0021	61.13 ± 0.92
328.15 K	0.345 ± 0.0042	21.57 ± 0.32

CCCC[n+]1ccn(C)c1.O=[N+]([O-])[O-] + CCO
101 kPa
Conditions	viscosity [mPa·s]
283.15 K, x2 = 0.447	35.48 ± 0.69
288.15 K, x2 = 0.352	51.47 ± 0.62
288.15 K, x2 = 0.663	9.58 ± 0.11
288.15 K, x2 = 0.748	6.39 ± 0.08
293.15 K, x2 = 0.254	67.9 ± 1.3
293.15 K, x2 = 0.4	31.2 ± 3.1
293.15 K, x2 = 0.748	5.61 ± 0.07
298.15 K, x2 = 0	159 ± 77
298.15 K, x2 = 0.11	105.5 ± 3.7
298.15 K, x2 = 0.2	58.3 ± 3.8
298.15 K, x2 = 0.663	7.62 ± 0.09
298.15 K, x2 = 0.748	4.83 ± 0.06
303.15 K, x2 = 0.447	16.15 ± 0.22
303.15 K, x2 = 0.6	10.1 ± 1.1
303.15 K, x2 = 0.852	2.46 ± 0.03
308.15 K, x2 = 0.11	59.6 ± 1
308.15 K, x2 = 0.2	38.6 ± 3.8
308.15 K, x2 = 0.352	21.4 ± 0.31
308.15 K, x2 = 0.663	5.77 ± 0.07
313.15 K, x2 = 0.11	47.55 ± 0.76
313.15 K, x2 = 0.2	32.1 ± 3.2
313.15 K, x2 = 0.254	29.2 ± 0.43
318.15 K, x2 = 0.2	26.9 ± 2.7
318.15 K, x2 = 0.254	24.53 ± 0.35
318.15 K, x2 = 0.4	14.2 ± 1.4
318.15 K, x2 = 0.852	1.9 ± 0.02
328.15 K, x2 = 0.447	7.87 ± 0.1
333.15 K, x2 = 0.254	15.52 ± 0.22

[Cl-].c1c[nH+]c[nH]1 + OCC(O)CO
100 kPa
Conditions	viscosity [mPa·s]
313.2 K, x1 = 0.1667	306 ± 24
313.2 K, x1 = 0.3333	154.5 ± 7.7
323.2 K, x1 = 0.25	107 ± 3.9
323.2 K, x1 = 0.3333	84 ± 2.2
333.2 K, x1 = 0.5	100.1 ± 3.2
343.2 K, x1 = 0.5	50.6 ± 0.7

O=C(O)CCl + CCCC[N+](CCCC)(CCCC)CCCC.O=S(=O)([O-])O
100 kPa
Conditions	electrical conductivity, 303.15 K [S/m]	electrical conductivity, 308.15 K [S/m]	electrical conductivity, 313.15 K [S/m]	electrical conductivity, 333.15 K [S/m]	viscosity, 313.15 K [mPa·s]	viscosity, 333.15 K [mPa·s]
x2 = 0.333	0.027 ± 0.0011	0.0376 ± 0.0011	–	–	–	–
x2 = 0.5	–	–	0.01 ± 0.001	0.0382 ± 0.001	1123 ± 61	294.2 ± 9.9

CCOS(=O)(=O)[O-].CC[N+]1(C)CCCCC1 + O
101 kPa
Conditions	viscosity [mPa·s]
298.15 K, x2 = 0.1867	690 ± 120
298.15 K, x2 = 0.5338	97 ± 16
298.15 K, x2 = 0.894	7.4 ± 1.2
303.15 K, x2 = 0.894	6.2 ± 1
308.15 K, x2 = 0	800 ± 140
308.15 K, x2 = 0.4417	92 ± 15
308.15 K, x2 = 0.8593	7.7 ± 1.2
313.15 K, x2 = 0.4417	71 ± 11
313.15 K, x2 = 0.8593	6.5 ± 1
318.15 K, x2 = 0.3409	90 ± 15
323.15 K, x2 = 0.2704	93 ± 15
323.15 K, x2 = 0.7839	8.8 ± 1.4
328.15 K, x2 = 0.2704	73 ± 12
328.15 K, x2 = 0.7839	7.5 ± 1.2
333.15 K, x2 = 0.1867	80 ± 13
333.15 K, x2 = 0.7357	8.6 ± 1.4
338.15 K, x2 = 0.1867	65 ± 10
338.15 K, x2 = 0.7357	7.5 ± 1.2
343.15 K, x2 = 0	100 ± 16
343.15 K, x2 = 0.7357	6.8 ± 1.1

CCOS(=O)(=O)[O-].CC[n+]1ccn(C)c1 + CCO + CCOC(C)(C)C
298.15 K, 101 kPa
Conditions	viscosity [mPa·s]
x2 = 0, x3 = 0	100.4 ± 5.5
x2 = 0.1271, x3 = 0	65.5 ± 2
x2 = 0.1281, x3 = 0	66.1 ± 2
x2 = 0.2039, x3 = 0	49.8 ± 1.4
x2 = 0.2187, x3 = 0	47.7 ± 1.3
x2 = 0.3088, x3 = 0	34.69 ± 0.88
x2 = 0.3256, x3 = 0	32.21 ± 0.81
x2 = 0.3598, x3 = 0	28.75 ± 0.71
x2 = 0.4147, x3 = 0	22.88 ± 0.55
x2 = 0.4336, x3 = 0	21.39 ± 0.5
x2 = 0.4604, x3 = 0	18.98 ± 0.44
x2 = 0.5103, x3 = 0	15.4 ± 0.35
x2 = 0.5223, x3 = 0	14.78 ± 0.34
x2 = 0.5724, x3 = 0	11.74 ± 0.26
x2 = 0.5926, x3 = 0	10.83 ± 0.24
x2 = 0.5951, x3 = 0	10.65 ± 0.24
x2 = 0.712, x3 = 0	6.13 ± 0.14
x2 = 0.7174, x3 = 0	5.98 ± 0.14
x2 = 0.7508, x3 = 0	5.08 ± 0.12
x2 = 0.7676, x3 = 0	4.68 ± 0.11
x2 = 0.7866, x3 = 0	4.31 ± 0.1
x2 = 0.806, x3 = 0	3.86 ± 0.089
x2 = 0.8666, x3 = 0	2.709 ± 0.063
x2 = 0.9026, x3 = 0	2.189 ± 0.051
x2 = 0.9062, x3 = 0	2.138 ± 0.05
x2 = 0.9504, x3 = 0	1.628 ± 0.039
x2 = 0.9522, x3 = 0	1.589 ± 0.038

[I-].[Li+] + CCCC[n+]1ccn(C)c1.N#C[N-]C#N
electrical conductivity [S/m], 101 kPa
Conditions	x2 = 0.917	x2 = 0.9294	x2 = 0.9462	x2 = 0.9628	x2 = 0.9799
288.15 K	–	0.389 ± 0.039	0.465 ± 0.047	0.506 ± 0.051	0.569 ± 0.057
298.15 K	0.577 ± 0.058	0.643 ± 0.065	0.749 ± 0.075	0.809 ± 0.081	0.892 ± 0.09
333.15 K	1.92 ± 0.19	2.04 ± 0.2	2.28 ± 0.23	2.33 ± 0.23	2.56 ± 0.26

CCCCCCCCn1cc[n+](C)c1C.[Cl-] + O
298 K, 101 kPa
Conditions	electrical conductivity [S/m]
x1 = 2.703e-05	0.02 ± 0.01
x1 = 0.0001369	0.09 ± 0.01
x1 = 0.000245	0.14 ± 0.01
x1 = 0.0003531	0.2 ± 0.02
x1 = 0.0004899	0.27 ± 0.02
x1 = 0.0007347	0.32 ± 0.03
x1 = 0.0008984	0.41 ± 0.03
x1 = 0.001197	0.48 ± 0.04
x1 = 0.001468	0.58 ± 0.05
x1 = 0.001766	0.69 ± 0.06
x1 = 0.002039	0.79 ± 0.06
x1 = 0.002391	0.88 ± 0.07
x1 = 0.002715	0.99 ± 0.08
x1 = 0.003203	1.14 ± 0.09
x1 = 0.003772	1.32 ± 0.11
x1 = 0.004474	1.48 ± 0.12
x1 = 0.005202	1.66 ± 0.13
x1 = 0.005876	1.77 ± 0.14
x1 = 0.006575	1.9 ± 0.15
x1 = 0.007219	2.02 ± 0.16
x1 = 0.007783	2.11 ± 0.17
x1 = 0.008319	2.19 ± 0.18
x1 = 0.0088	2.26 ± 0.18
x1 = 0.009202	2.34 ± 0.19
x1 = 0.009496	2.39 ± 0.19

CCOS(=O)(=O)[O-].CC[n+]1ccn(C)c1 + CCC(C)O
101 kPa
Conditions	viscosity [mPa·s]
298.15 K, x1 = 0.2027	6.91 ± 0.61
298.15 K, x1 = 0.6944	39.6 ± 1.1
298.15 K, x1 = 0.7957	54.2 ± 1.4
303.15 K, x1 = 0.2027	6.81 ± 0.61
303.15 K, x1 = 0.4906	17.37 ± 0.85
303.15 K, x1 = 0.8916	57.3 ± 1.6
308.15 K, x1 = 0.3936	9.98 ± 0.62
308.15 K, x1 = 0.8916	46.8 ± 1.4
313.15 K, x1 = 0.2027	4.59 ± 0.6
313.15 K, x1 = 0.3936	9.48 ± 0.62
313.15 K, x1 = 0.5916	17.67 ± 0.86
313.15 K, x1 = 1	49.4 ± 1.5
318.15 K, x1 = 0.2027	4.03 ± 0.6
323.15 K, x1 = 0.2937	5 ± 0.6
